Data taken from PubChem BioAssay (NCI).
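Here, GI50 denotes the concentration required for 50% inhibition of growth. Definition used: TGI = concentration required for complete inhibition of growth.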

How the values were obtained:
Assay in all cases: DTP human tumour cell line panel, 384-well format
LOX IMVI melanoma = test system: LOX IMVI melanoma
786-0 renal = test system: 786-0 renal
SR leukemia = test system: SR leukemia
M14 melanoma = test system: M14 melanoma
HOP-92 NSCLC = test system: HOP-92 NSCLC
SW-620 colon = test system: SW-620 colon
MDA-MB-468 breast = test system: MDA-MB-468 breast
CCRF-CEM leukemia = test system: CCRF-CEM leukemia
HL-60(TB) leukemia = test system: HL-60(TB) leukemia
A498 renal = test system: A498 renal
MDA-MB-231 breast = test system: MDA-MB-231 breast
UACC-257 melanoma = test system: UACC-257 melanoma
COLO 205 colon = test system: COLO 205 colon
NCI-H460 NSCLC = test system: NCI-H460 NSCLC
SK-MEL-28 melanoma = test system: SK-MEL-28 melanoma
SK-MEL-5 melanoma = test system: SK-MEL-5 melanoma
HS 578T breast = test system: HS 578T breast
SF-539 CNS = test system: SF-539 CNS
ACHN renal = test system: ACHN renal
EKVX NSCLC = test system: EKVX NSCLC
NCI-H522 lung = test system: NCI-H522 lung
NCI-H23 lung = test system: NCI-H23 lung
BT-549 breast = test system: BT-549 breast
KM12 colon = test system: KM12 colon
UO-31 renal = test system: UO-31 renal
MDA-MB-435 melanoma = test system: MDA-MB-435 melanoma
RPMI-8226 leukemia = test system: RPMI-8226 leukemia
PC-3 prostate = test system: PC-3 prostate
K-562 leukemia = test system: K-562 leukemia
OVCAR-5 ovarian = test system: OVCAR-5 ovarian
IGROV1 ovarian = test system: IGROV1 ovarian
UACC-62 melanoma = test system: UACC-62 melanoma
SF-295 CNS = test system: SF-295 CNS
MOLT-4 leukemia = test system: MOLT-4 leukemia
TK-10 renal = test system: TK-10 renal
A549 NSCLC = test system: A549 NSCLC
HCC-2998 colon = test system: HCC-2998 colon
NCI-H322M lung = test system: NCI-H322M lung
T-47D breast = test system: T-47D breast
NCI/ADR-RES ovarian = test system: NCI/ADR-RES ovarian
HCT-15 colon = test system: HCT-15 colon
SNB-75 CNS = test system: SNB-75 CNS
OVCAR-8 ovarian = test system: OVCAR-8 ovarian
SK-OV-3 ovarian = test system: SK-OV-3 ovarian
NCI-H226 lung = test system: NCI-H226 lung
HT29 colon = test system: HT29 colon
SNB-19 CNS = test system: SNB-19 CNS
HOP-62 NSCLC = test system: HOP-62 NSCLC
DU-145 prostate = test system: DU-145 prostate
CAKI-1 renal = test system: CAKI-1 renal
RXF 393 renal = test system: RXF 393 renal
MCF7 breast = test system: MCF7 breast
SF-268 CNS = test system: SF-268 CNS
OVCAR-4 ovarian = test system: OVCAR-4 ovarian
MALME-3M melanoma = test system: MALME-3M melanoma
OVCAR-3 ovarian = test system: OVCAR-3 ovarian
SN12C renal = test system: SN12C renal

With `Cc1nc(-c2cnc(NC(C)C)n(C)c2=O)ccc1Oc1ccnc(-c2cnn(C)c2)c1` the GI50 (LOX IMVI melanoma) was 17.9 µM, the TGI (LOX IMVI melanoma) was 71.6 µM and the GI50 ([…]-0 renal) was 18.3 µM. The TGI (786-0 renal) was 61.4 µM, the GI50 (SR leukemia) was 1.5 µM and the TGI (SR leukemia) was 2.99 µM. The GI50 (M14 melanoma) was 7.99 µM, the TGI (M14 melanoma) was 27.3 µM and the GI50 (HOP-92 NSCLC) was 19.5 µM. For the same compound, the TGI (HOP-92 NSCLC) was 68.6 µM, the GI50 (SW-620 colon) was 5.53 µM and the TGI (SW-620 colon) was 17.9 µM. It also gave a GI50 (MDA-MB-468 breast) of 2.73 µM, a TGI (MDA-MB-468 breast) of 6.33 µM and a GI50 (CCRF-CEM leukemia) of 4.56 µM. For the same compound, the TGI (CCRF-CEM leukemia) was 14.9 µM, the GI50 (HL-60(TB) leukemia) was 2.63 µM and the TGI (HL-60(TB) leukemia) was 6.27 µM. The GI50 (A498 renal) was 13.2 µM, the TGI (A498 renal) was over 100 µM and the GI50 (MDA-MB-231 breast) was 16.4 µM. It also gave a TGI (MDA-MB-231 breast) of over 100 µM, a GI50 (UACC-257 melanoma) of 17.2 µM and a TGI (UACC-257 melanoma) of 57.1 µM. For the same compound, the GI50 (COLO 205 colon) was 9.84 µM, the TGI (COLO 205 colon) was 22.8 µM and the GI50 (NCI-H460 NSCLC) was 15.4 µM. It also gave a TGI (NCI-H460 NSCLC) of 37.4 µM, a GI50 (SK-MEL-28 melanoma) of 14.5 µM and a TGI (SK-MEL-28 melanoma) of 69.5 µM. For the same compound, the GI50 (SK-MEL-5 melanoma) was 4.46 µM, the TGI (SK-MEL-5 melanoma) was 16.2 µM and the GI50 (HS 578T breast) was 13.6 µM. For the same compound, the TGI (HS 578T breast) was 29.2 µM, the GI50 (SF-539 CNS) was 12.4 µM and the TGI (SF-539 CNS) was 25.2 µM. The GI50 (ACHN renal) was 27.2 µM, the TGI (ACHN renal) was over 100 µM and the GI50 (EKVX NSCLC) was 18.1 µM. The TGI (EKVX NSCLC) was over 100 µM, the GI50 (NCI-H522 lung) was 4.45 µM and the TGI (NCI-H522 lung) was 15.5 µM. The GI50 (NCI-H23 lung) was 12.4 µM, the TGI (NCI-H23 lung) was 36 µM and the GI50 (BT-549 breast) was 14 µM. The TGI (BT-549 breast) was 81.1 µM, the GI50 (KM12 colon) was 4.67 µM and the TGI (KM12 colon) was 33.9 µM. It also gave a GI50 (UO-31 renal) of 97.3 µM, a TGI (UO-31 renal) of over 100 µM and a GI50 (MDA-MB-435 melanoma) of 2.39 µM. The TGI (MDA-MB-435 melanoma) was 5.7 µM, the GI50 (RPMI-8226 leukemia) was 4.9 µM and the TGI (RPMI-8226 leukemia) was 21.7 µM. The GI50 (PC-3 prostate) was 21 µM, the TGI (PC-3 prostate) was 60.3 µM and the GI50 (K-562 leukemia) was 1.26 µM. For the same compound, the TGI (K-562 leukemia) was 2.68 µM, the GI50 (OVCAR-5 ovarian) was 17.2 µM and the TGI (OVCAR-5 ovarian) was 34.9 µM. The GI50 (IGROV1 ovarian) was 13.7 µM, the TGI (IGROV1 ovarian) was 44.3 µM and the GI50 (UACC-62 melanoma) was 6.42 µM. It also gave a TGI (UACC-62 melanoma) of 24.6 µM, a GI50 (SF-295 CNS) of 15.6 µM and a TGI (SF-295 CNS) of 62.7 µM. The GI50 (MOLT-4 leukemia) was 1.87 µM, the TGI (MOLT-4 leukemia) was 3.56 µM and the GI50 (TK-10 renal) was 27.1 µM. The TGI (TK-10 renal) was over 100 µM, the GI50 (A549 NSCLC) was 23.3 µM and the TGI (A549 NSCLC) was over 100 µM. For the same compound, the GI50 (HCC-2998 colon) was 14.2 µM, the TGI (HCC-2998 colon) was 36.9 µM and the GI50 (NCI-H322M lung) was 23.5 µM. For the same compound, the TGI (NCI-H322M lung) was 73.4 µM, the GI50 (T-47D breast) was 5.73 µM and the TGI (T-47D breast) was 28.7 µM. The GI50 (NCI/ADR-RES ovarian) was 5.77 µM, the TGI (NCI/ADR-RES ovarian) was 19.3 µM and the GI50 (HCT-15 colon) was 4.68 µM. It also gave a TGI (HCT-15 colon) of 19.4 µM, a GI50 (SNB-75 CNS) of 10.9 µM and a TGI (SNB-75 CNS) of 26.8 µM. It also gave a GI50 (OVCAR-8 ovarian) of 14.6 µM, a TGI (OVCAR-8 ovarian) of 28.4 µM and a GI50 (SK-OV-3 ovarian) of 11.5 µM. For the same compound, the TGI (SK-OV-3 ovarian) was 25.5 µM, the GI50 (NCI-H226 lung) was 19 µM and the TGI (NCI-H226 lung) was 90.7 µM. For the same compound, the GI50 (HT29 colon) was 7.73 µM, the TGI (HT29 colon) was 34.7 µM and the GI50 (SNB-19 CNS) was 21.3 µM. For the same compound, the TGI (SNB-19 CNS) was 68.6 µM, the GI50 (HOP-62 NSCLC) was 14.4 µM and the TGI (HOP-62 NSCLC) was 39.6 µM. For the same compound, the GI50 (DU-145 prostate) was 30.1 µM, the TGI (DU-145 prostate) was over 100 µM and the GI50 (CAKI-1 renal) was 25.7 µM. It also gave a TGI (CAKI-1 renal) of over 100 µM, a GI50 (RXF 393 renal) of 12.4 µM and a TGI (RXF 393 renal) of 34.2 µM. For the same compound, the GI50 (MCF7 breast) was 9.45 µM, the TGI (MCF7 breast) was over 100 µM and the GI50 (SF-268 CNS) was 19.8 µM. The TGI (SF-268 CNS) was 64.1 µM, the GI50 (OVCAR-4 ovarian) was 13.6 µM and the TGI (OVCAR-4 ovarian) was 50.8 µM. For the same compound, the GI50 (MALME-3M melanoma) was 7.48 µM, the TGI (MALME-3M melanoma) was 36.5 µM and the GI50 (OVCAR-3 ovarian) was 8.64 µM. The TGI (OVCAR-3 ovarian) was 28 µM, the GI50 (SN12C renal) was 14.5 µM and the TGI (SN12C renal) was 28.3 µM.
